The text below walks through data of patent US11512053B2, “Arginine methyltransferase inhibitors and uses thereof” (priority 2013, dated 2022).

Structures are written as SMILES. pIC50: −log10 of the molar value. Like-named read-outs stand apart in the source and are kept apart here.

The target in this assay is full-length human PRMT8 isoform 1 (Homo sapiens, UniProt Q9NR22). The assay is described as follows: PRMT8 Biochemical Assay (3H-SAM Flashplate, peptide substrate). The method, boiled down:
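Full-length human PRMT8 (1.5 nM, E. coli-expressed, GST removed) preincubated 30 min at room temperature with compound, then reacted with 50 nM 3H-SAM plus 550 nM cold SAM and 150 nM biotinylated H4 31-45 peptide in 20 mM Bicine pH 7.6, 1 mM TCEP, 0.005% BSG, 0.002% Tween 20, 2% DMSO. Quenched with 400 uM cold SAM; labelled peptide captured on streptavidin Flashplate, % inhibition versus 1 mM SAH and DMSO controls fitted to 4- or 3-parameter curve.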

[1] abbreviates: single experiment or average of multiple experiments, read-out: Biochemical IC50 PRMT8.
The mark [2] stands for this setting: read-out: Biochemical IC50 PRMT8.

full-length human PRMT8 isoform 1, sequence (Q9NR22 whole entry, canonical isoform): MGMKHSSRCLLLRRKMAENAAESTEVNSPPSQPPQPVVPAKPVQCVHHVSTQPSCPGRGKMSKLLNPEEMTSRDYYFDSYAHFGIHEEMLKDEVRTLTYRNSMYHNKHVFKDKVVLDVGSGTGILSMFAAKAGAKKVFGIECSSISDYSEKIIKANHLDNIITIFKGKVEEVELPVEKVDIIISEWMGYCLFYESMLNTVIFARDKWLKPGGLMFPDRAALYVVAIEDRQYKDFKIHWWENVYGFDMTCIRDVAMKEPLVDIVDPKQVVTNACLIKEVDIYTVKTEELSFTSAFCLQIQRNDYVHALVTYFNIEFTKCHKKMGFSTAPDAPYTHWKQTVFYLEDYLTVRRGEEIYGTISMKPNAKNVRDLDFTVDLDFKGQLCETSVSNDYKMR

Turning to `CNCCN(C)Cc1c[nH]nc1C#Cc1cccc(OC)c1` [Compound 1], the pIC50 under setting [1] is 6.41.

For the compound `CNCCN(C)Cc1c[nH]nc1C#Cc1ccc(C(C)(C)C)cc1` [Compound 2], the pIC50 under setting [1] is 6.77.

Take `CNCCN(C)Cc1c[nH]nc1C#Cc1ccc(F)cc1` [Compound 4]: the pIC50 under setting [1] was 6.23.

Take `CNCCN(C)Cc1c[nH]nc1/C=C/c1ccc(-c2ccccc2)cc1` [Compound 5]: the pIC50 under setting [1] was 6.38.

In the case of `CNCCN(C)Cc1c[nH]nc1/C=C/c1ccc(C(F)(F)F)cc1` [Compound 6], under setting [1], the pIC50 is 6.62.

For the compound `CNCCN(C)Cc1c[nH]nc1/C=C/c1ccc(OC)cc1` [Compound 7], under setting [1], the pIC50 was 6.28.

`Cc1ccc(/C=C/c2n[nH]cc2CN(C)CCN)cc1` [Compound 8]: under setting [1], the pIC50 was 6.44.

With `CN(CCN)Cc1c[nH]nc1C1=CCOCC1` [Compound 10], the pIC50 under setting [1] is 5.72.

In the case of `COc1cc(/C=C/c2n[nH]cc2CN(C)CCN)cc(OC)c1` [Compound 11], under setting [1], the pIC50 is 6.60.

As to `CN(CCN)Cc1c[nH]nc1C1CC1` [Compound 12], the pIC50 is under 5.00 under setting [2] and under 5.00 under setting [1].

Consider `CN(CCN)Cc1c[nH]nc1/C=C/c1ccc(F)cc1F` [Compound 13], for which, under setting [1], the pIC50 is 6.52.

Take `CN(CCN)Cc1c[nH]nc1/C=C/c1cc(C(F)(F)F)cc(C(F)(F)F)c1` [Compound 14]: under setting [1], the pIC50 is 6.18.

With `CN(CCN)Cc1c[nH]nc1/C=C/c1cc(F)cc(F)c1` [Compound 15], the pIC50 under setting [1] is 6.15.

As to `CN(CCN)Cc1c[nH]nc1/C=C/c1cccc(C(F)(F)F)c1` [Compound 16], under setting [1], the pIC50 was 6.16.

As for `COc1cccc(/C=C/c2n[nH]cc2CN(C)CCN)c1` [Compound 17], the negative-log IC50 (pIC50) under setting [1] was 6.39.

Consider `CN(CCN)Cc1c[nH]nc1/C=C/c1ccc(C(F)(F)F)cc1` [Compound 18], for which the pIC50 under setting [1] was 7.40.

Consider `COC/C=C/c1n[nH]cc1CN(C)CCN` [Compound 19], for which, under setting [1], the pIC50 is 5.64.

On to `CN(CCN)Cc1c[nH]nc1/C=C/c1cccc(F)c1` [Compound 20], for which the pIC50 under setting [1] is 6.33.

Turning to `CC(C)c1n[nH]cc1CN(C)CCN` [Compound 21], the pIC50 under setting [1] is 5.02.

Consider `CN(CCN)Cc1c[nH]nc1C1CCCCC1` [Compound 22], for which, under setting [1], the pIC50 was 6.52.

Take `CN(CCN)Cc1c[nH]nc1CCc1ccc(F)cc1` [Compound 23, N^1-((3-(4-fluorophenethyl)-1H-pyrazol-4-yl)methyl)-N^1-methylethane-1,2-diamine]: the pIC50 under setting [1] is 6.55.

With `CN(CCN)Cc1c[nH]nc1/C=C/Cc1ccccc1` [Compound 24], the pIC50 under setting [1] is 6.52.

With `CN(CCN)Cc1c[nH]nc1C1=CCCC1` [Compound 25], the negative-log IC50 (pIC50) under setting [1] was 5.54.

In the case of `CN(CCN)Cc1c[nH]nc1C1CCC1` [Compound 26], under setting [1], the pIC50 was 5.25.

`CN(CCN)Cc1c[nH]nc1C(C)(C)C` [Compound 27]: the pIC50 under setting [2] is under 5.00 and the pIC50 under setting [1] is under 5.00.

Turning to `CC(C)Cc1n[nH]cc1CN(C)CCN` [Compound 28, N^1-((3-iso-butyl-1H-pyrazol-4-yl)methyl)-N^1-methylethane-1,2-diamine], the pIC50 under setting [1] was 5.77.

Regarding `CCCc1n[nH]cc1CN(C)CCN` [Compound 29], the pIC50 under setting [1] was 5.42.

With `Cc1n[nH]cc1CN(C)CCN` [Compound 30], the pIC50 under setting [1] is under 5.00.

For the compound `CN(CCN)Cc1c[nH]nc1C1CCCC1` [Compound 31], the pIC50 under setting [1] was 5.94.

On to `CNCCN(C)Cc1c[nH]nc1C1CCN(C(=O)Cc2ccccc2)CC1` [Compound 32], for which, under setting [1], the negative-log IC50 (pIC50) is 6.11.

Turning to `CN(CCN)Cc1n[nH]cc1C1CCCCC1` [Compound 33], under setting [1], the pIC50 is 6.30.

In the case of `CNCCN(C)Cc1c[nH]nc1C1CCN(C(=O)C(C)C)CC1` [Compound 34], the pIC50 under setting [1] was 6.36.

Turning to `CC1CCC(c2c[nH]nc2CN(C)CCN)CC1` (stereo not shown) [Compound 35], the negative-log IC50 (pIC50) under setting [1] was 6.85.

On to `CN(CCN)Cc1n[nH]cc1C1CCC(C)(C)CC1` [Compound 36], for which the pIC50 under setting [1] is 6.55.

In the case of `CC1CCC(c2n[nH]cc2CN(C)CCN)CC1` (stereo not shown) [Compound 37, N^1-methyl-N^1-((3-(4-methylcyclohexyl)-1H-pyrazol-4-yl)methyl)ethane-1,2-diamine], the pIC50 under setting [1] is 6.89.

Turning to `CN(CCN)Cc1c[nH]nc1C1CCC(C)(C)CC1` [Compound 38, N^1-((3-(4,4-dimethylcyclohexyl)-1H-pyrazol-4-yl)methyl)-N^1-methylethane-1,2-diamine], under setting [1], the pIC50 is 6.59.

With `CNCCN(C)Cc1c[nH]nc1C1CCN(CC(C)C)CC1` [Compound 39, N^1-((3-(1-isobutylpiperidin-4-yl)-1H-pyrazol-4-yl)methyl)-N^1,N^2-dimethylethane-1,2-diamine], the pIC50 under setting [1] is 6.44.

Consider `CNCCN(C)Cc1c[nH]nc1C1CCN(C(=O)CC(C)C)CC1` [Compound 40, 3-methyl-1-(4-(4-((methyl(2-(methylamino)ethyl)amino)methyl)-1H-pyrazol-3-yl)piperidin-1-yl)butan-1-one], for which the pIC50 under setting [1] is 5.15.

Turning to `CNCCN(C)Cc1c[nH]nc1C1CCN(C)CC1` [Compound 41], the pIC50 under setting [1] was 6.46.

For the compound `CNCCN(C)Cc1c[nH]nc1C1CCNCC1` [Compound 42], under setting [1], the pIC50 is 7.52.

For `CN(CCN)Cc1n[nH]cc1C1CCC(N2CCOCC2)CC1` (stereo not shown) [Compound 44, N^1-methyl-N^1-((4-(4-morpholinocyclohexyl)-1H-pyrazol-3-yl)methyl)ethane-1,2-diamine], under setting [1], the pIC50 is 7.20.

For the compound `CN(CCN)Cc1c[nH]nc1C1CCC2(CCCC2)CC1` [Compound 45], the negative logarithm of the IC50 (pIC50) under setting [1] was 8.28.

With `CNCCN(C)Cc1c[nH]nc1C1CCC2(CCCCC2)CC1` [Compound 46], the pIC50 under setting [1] is 8.21.

As to `CNCCN(C)Cc1cn(C)nc1C1CCC2(CCCC2)CC1` [Compound 47], the pIC50 under setting [1] is 7.90.

On to `CNCCN(C)Cc1c[nH]nc1C1CCC2(CCCC2)CC1` [Compound 48], for which the negative logarithm of the IC50 (pIC50) under setting [1] was 8.08.

Regarding `CNCCN(C)Cc1cnn(C)c1C1CCC2(CCCC2)CC1` [Compound 49], under setting [1], the pIC50 was 8.14.

As to `CNCCN(C)Cc1c[nH]nc1C1CCC(C(C)C)CC1` (stereo not shown) [Compound 50], under setting [1], the pIC50 was 7.95.

Consider `CNCCN(C)Cc1c[nH]nc1C1CCC2(CCCO2)CC1` (stereo not shown) [Compound 51], for which the pIC50 under setting [1] was 7.67.

Consider `CNCCN(C)Cc1c[nH]nc1C1CCC(C)(C)CC1` [Compound 52], for which, under setting [1], the pIC50 is 7.98.

On to `CNCCN(C)Cc1c[nH]nc1C1CCC(COC)CC1` (stereo not shown) [Compound 53], for which the pIC50 under setting [1] is 7.89.

As for `CNCCN(C)Cc1c[nH]nc1C1CCC2(CCOC2)CC1` (stereo not shown) [Compound 54], under setting [1], the pIC50 is 7.61.

For `CNCCN(C)Cc1c[nH]nc1C1CCC(CCOC)CC1` (stereo not shown) [Compound 55], the negative logarithm of the IC50 (pIC50) under setting [1] is 7.61.

`CNCCN(C)Cc1c[nH]nc1C1CCC(OC(C)C)CC1` (stereo not shown) [Compound 56]: under setting [1], the pIC50 was 7.49.

Turning to `CNCCN(C)Cc1c[nH]nc1C1CCC(COC)(COC)CC1` [Compound 57], under setting [1], the pIC50 was 7.52.

With `CNCCN(C)Cc1c[nH]nc1C1CCC(OCCOC)CC1` (stereo not shown) [Compound 58], the negative logarithm of the IC50 (pIC50) under setting [1] is 7.14.

As to `CNCCN(C)Cc1c[nH]nc1C1CC(C)(C)OC(C)(C)C1` [Compound 59], the pIC50 under setting [1] was 7.32.

As to `CNCCN(C)Cc1c[nH]nc1C1CCC(COCCOC)(COCCOC)CC1` [Compound 60], the pIC50 under setting [1] is 6.89.

Take `CNCCN(C)Cc1c[nH]nc1C1CCC2(CCCCC2)OC1` (stereo not shown) [Compound 62]: the pIC50 reads like this: under setting [2], over 7.00; under setting [1], 7.70.

Take `CNCCN(C)Cc1c[nH]nc1C1CCC2(CC1)CC(C)OC(C)C2` (stereo not shown) [Compound 63]: the negative logarithm of the IC50 (pIC50) was over 7.00 under setting [2] and 7.92 under setting [1].

`CNCCN(C)Cc1c[nH]nc1C1CCC2(CCC(C)(C)CC2)OC1` (stereo not shown) [Compound 65]: the negative-log IC50 (pIC50) is over 7.00 under setting [2] and 7.87 under setting [1].

Take `CNCCN(C)Cc1c[nH]nc1C1CCC(Oc2ccccc2)CC1` (stereo not shown) [Compound 67]: the pIC50 was over 7.00 under setting [2] and 7.92 under setting [1].

For `CCC(CC)OC1CCC(c2n[nH]cc2CN(C)CCNC)CC1` (stereo not shown) [Compound 70], the pIC50 is over 7.00 under setting [2] and 7.62 under setting [1].

With `CNCCN(C)Cc1c[nH]nc1C1CC(COC)C(C)(C)C(COC)C1` (stereo not shown) [Compound 86], the pIC50 reads like this: under setting [2], 5.00 to 5.52; under setting [1], 5.40.

`CCOCC1CC(c2n[nH]cc2CN(C)CCNC)CC(COCC)C1(C)C` (stereo not shown) [Compound 87]: the pIC50 reads like this: under setting [2], 5.52 to 6.00; under setting [1], 5.99.

With `CNCCN(C)Cc1c[nH]nc1C1CCC(C)(C)C(C(=O)NCC(C)C)C1` (stereo not shown) [Compound 90], the pIC50 was 6.00 to 7.00 under setting [2] and 6.93 under setting [1].

Regarding `CNCCN(C)Cc1c[nH]nc1C1CCC(C)(C)C(C(=O)NCCC(C)C)C1` (stereo not shown) [Compound 91], the pIC50 runs as follows: under setting [2], over 7.00; under setting [1], 7.54.

Regarding `CNCCN(C)Cc1c[nH]nc1C1CCC(C)(C)C(C(=O)NCc2ccccc2)C1` (stereo not shown) [Compound 92], the pIC50 is over 7.00 under setting [2] and 7.38 under setting [1].

Take `CNCCN(C)Cc1c[nH]nc1C1CCC(C)(C)C(C(=O)NCCCOC)C1` (stereo not shown) [Compound 93]: the negative-log IC50 (pIC50) is, setting by setting: under setting [2], over 7.00; under setting [1], 7.05.

With `CNCCN(C)Cc1c[nH]nc1C1CCC(C)(C)C(COCC(C)C)C1` (stereo not shown) [Compound 95], the pIC50 reads like this: under setting [2], over 7.00; under setting [1], 7.72.

For `CNCCN(C)Cc1c[nH]nc1[C@H]1CC[C@@]2(CC1)CC(C)(C)CO2` [Compound 133, Methyl[2-(methylamino)ethyl]([3-[(5s,8s)-3,3-dimethyl-1-oxaspiro[4.5]decan-8-yl]-1H-pyrazol-4-yl]methyl)amine], the pIC50 is, setting by setting: (Biochemical IC50 PRMT8) over 7.00; (Biochemical IC50 PRMT8, single experiment or average of multiple experiments) 8.04.

As usually defined, the pIC50 is the IC50 on a negative log10 scale, so that one unit is a factor of ten.
